{"source": "patent US20080069857A1", "about": "“Compositions And Methods For Inhibiting Adhesions” (priority 2006, published 2008)", "key": {"[1]": {"test_system": "Human mesothelial cells (ATCC, CRL-9444)", "protocol": "In vitro cell viability assay: Human mesothelial cells (ATCC, CRL-9444) were cultured in Medium 199, containing Earle's salts, L-glutamine, and 2.2 g/L sodium bicarbonate and supplemented with 3.3 nM epidermal growth factor, 400 nM hydrocortisone, 870 nM insulin, 20 mM HEPES, and 10% fetal bovine serum. Cells from passage 5 through 25 were used for the following studies. Mesothelial cells were seeded into 24-well plates at a density of 50,000 cells per well in 1 ml of culture medium. […] After varying periods of incubation in the presence of the hydrogels, cell viability was assessed with an MTT assay kit (Promega CellTiter 96 Non-Radioactive Cell Proliferation Assay).\nCell proliferation assay. […] After varying periods of incubation in the presence of the hydrogels, cell viability was assessed with an MTT assay kit (Promega CellTiter 96 Non-Radioactive Cell Proliferation Assay).\nMesothelial cells were grown and maintained in a complete growth medium (GIBCO: Medium199 with Earle's BSS, 0.75 mM L-glutamine and 1.25 g/L sodium bicarbonate supplemented with 3.3 nM epidermal growth factor, 400 nM hydrocortisone, 870 nM insulin, 20 mM HEPES and 10% fetal bovine serum) at 37° C. in 5% CO2. […] The purple formazan produced by active mitochondria was solubilized using 1 ml detergent solution and then read at 570 nm by plate reader (Molecular Devices: SpectraMax 384, Union City, Calif.). […]"}, "peritoneal adhesions": {"test_system": "peritoneal adhesions", "details": "1 week after second laparotomy", "description": "Repeated laparotomy model. Female albino rabbits (Oryctolagus cuniculus; New Zealand White) (3±0.5 kg) were used. The first laparotomy and post-operation care were performed as described above. A 2nd laparotomy was performed after 1 week. On examination prior to the 2nd laparotomy, animals were excluded from the 2nd laparotomy for the following: (i) loss of more than 15% of body weight since the 1st laparotomy; (ii) poor feeding. On laparotomy, adhesions were scored as previously then lysed (cut). The previously excised abdominal wall was re-abraded 50 times unidirectionally, and the cecum surface between 6-12th haustra was re-abraded 150-200 times bidirectionally using a sterile brush until a bleeding bed was obtained.\nThirty animals were assigned randomly to experimental groups and test materials were applied on the injured areas. The operator was blinded as to the nature of the materials. HA-ADH and HA-CHO were sterilized by germicidal UV illumination for 2 hours and dissolved in 5 ml sterile saline, respectively. Ten ml of gel were applied on the injured sites with a dual valve applicator as previously. As controls, a group of animals received no treatment, and another group received 10 ml saline.\nAfter treatment of the injured areas, the peritoneum and abdominal wall were closed with 2-0 Ethilon and 3-0 Dexon, respectively. The skin was closed with 2-0 Ethilon. Animals were allowed to awaken and had food and water ad libitum. Buprenorphine 0.02-0.03 mg/kg was administered sc 8-12 hours interval until 48 hours post-surgery. The animals were sacrificed 1 week after the second laparotomy by intravenous injection of sodium pentobarbital. Adhesions were scored in two ways. (i) Quality of adhesions was scored as follows: Adhesions were scored using a modification of a reported method (Burns J W, Skinner K, Colt J, Sheidlin A, Bronson R, Yaacobi Y, et al. Prevention of tissue injury and postsurgical adhesions by precoating tissues with hyaluronic acid solutions. Journal of Surgical Research 1995;59:644-652, which is incorporated herein by reference). Score 0=no adhesion, score 1=tissue adherence that would separate with gravity, score 2=tissue adherence separable by blunt dissection, score 3=adhesion requiring sharp dissection. If there were multiple adhesions of different scores, we chose the higher one as a representative score. (ii) Area of score 2 or 3 adhesions was measured for quantitative evaluation of the adhesions. The location of adhesions (whether they include suture sites or not; location and number of cecal haustra involved in the adhesion) and weight changes were recorded. Tissues recovered from the necropsy were fixed in 10% formalin, embedded in paraffin, sectioned, and stained with hematoxylin and eosin for histological examination.\nPeritoneal adhesions were induced in female albino rabbits (Oryctolagus cuniculus; New Zealand White) (3±0.5 kg) through repeated laparotomies as described in our previous study [tPA]. Briefly, cecum abrasion and excision of abdominal wall were performed to induce de novo adhesions (Yeo et al. In situ cross-linkable hyaluronic acid hydrogels prevent post-operative abdominal adhesions in a rabbit model. Biomaterials 2006;27:4698-4705, which is incorporated herein by reference). A second laparotomy was performed after 1 week to cut the adhesions and introduce additional injuries to the same locations as those injured in the first laparotomy. […]"}, "[2]": {"test_system": "TNF-α production by primary mouse macrophages", "assay": "TNF-α production by LPS-challenged macrophages", "format": "cell-based, mouse (C57/B16)", "details": "macrophages stimulated with LPS", "description": "(§1) C57/B16 mice were purchased from Taconic (Hudson, N.Y.). 2 ml of 3% (w/v) sterile thioglycollate solution (DIFCO Laboratories, Detroit, Mich.) was injected into the peritoneal cavity. Four days after injection, the mice were euthanized by CO2, and 6 ml of ice-cold PBS buffer containing 5 mM EDTA was injected. After agitating the peritoneum with forceps, a macrophage-containing solution was aspirated. The cells were placed immediately into iced DMEM on ice prior to washing, counting and plating. Approximately 10^7 cells per mouse were obtained.\n(§2) Non-adherent cells were removed by washing with 200 μl/well PBS buffer. Then 100 μl of DMEM with 10% FBS and 100 μl of medium pre-incunated with hydrogels (Sec. 2.2.9), or known concentrations of dexamethasone, were added to the adherent macrophages in each well. After incubation for 24 h at 37° C. in 5% CO2, 25 μl of 900 ng/ml of LPS (Sigma, St. Louis, Mo.; Catalog #L-4391) was added to each well to a final concentration of 100 ng/ml. After incubation for a further 16 h, the media were collected and stored at −80° C. until analyzed. The concentration of TNF-α, IL-6, and dexamethasone in those media were measured by ELISA (enzyme-linked immunosorbent assay). The ELISA kits for TNF-α, IL-6, and dexamethasone were purchased from R&D Systems (DuoSet, Cat DY406), BioLegend (Mouse IL-6 ELISA MAX™ Set (Deluxe)), and Neogen Corporation, respectively."}, "[3]": {"test_system": "IL-6 production by primary mouse macrophages", "assay": "IL-6 production by LPS-challenged macrophages", "format": "cell-based, mouse (C57/B16)", "details": "macrophages stimulated with LPS", "description": "as §1, §2"}, "[4]": {"assay": "Budesonide solubility in saline", "format": "physicochemical", "details": "saline or isotonic, thermodynamic from solid, 37° C., read-out: saturation solubility in saline", "description": "The maximum solubility of budesonide in saline was determined as described (Gennaro A R, editor. Remington: The Science and Practice of Pharmacy. 20th ed. Philadelphia, Pa.: Lippincott Williams & Wilkins, 2000, which is incorporated herein by reference). First, increasing amounts of budesonide were mixed with saline to provide budesonide concentration in the system from 25 mg/ml to 0.002 mg/ml. The mixtures were constantly stirred at 37° C. for 24 hours, and then centrifuged at 12,000 rpm for 5 minutes to separate the solution phase from the solid phase. The budesonide concentrations in the solution phase were measured by High Performance Liquid Chromatography (HPLC). The saturation solubility of budesonide in saline was determined by extrapolating the line segment, of which slope was 0, to y-axis.\nIn a separate experiment, budesonide-saline 0.13 mg/ml was prepared as described above, divided into 1 ml aliquots, and incubated at 37° C. with constant stirring. At timed intervals, an aliquot of budesonide-saline was taken and centrifuged at 12,000 rpm for 5 minutes to separate 0.8 ml of supernatant for HPLC analysis. The remaining 0.2 ml, potentially containing precipitated budesonide, was dissolved in 0.8 ml acetonitrile and analyzed with HPLC. […]"}, "[5]": {"details": "United States Pharmacopoeia classification \"practically insoluble\"; cited from earlier work"}}}
{"compound": "hyaluronic acid [HA, reference compound]", "values": [{"measurement": "effect of polymers on mesothelial cell viability (MTT)", "setting": "[1]", "value": "small reductions in cell viability"}]}
{"compound": "HA-adipic dihydrazide [HA-ADH]", "values": [{"measurement": "effect of polymers on mesothelial cell viability (MTT)", "setting": "[1]", "value": "small reductions in cell viability"}]}
{"compound": "tPA: bolus of tPA solution (2.2 mg Activase) in the absence of HAX", "values": [{"measurement": "Qualitative (score) % frequency, score 0", "setting": "peritoneal adhesions; 10 ml applied on injured sites", "value": 25, "unit": "%"}, {"measurement": "Qualitative (score) % frequency, score 1", "setting": "peritoneal adhesions; 10 ml applied on injured sites", "value": 0, "unit": "%"}, {"measurement": "Qualitative (score) % frequency, score 2", "setting": "peritoneal adhesions; 10 ml applied on injured sites", "value": 0, "unit": "%"}, {"measurement": "Qualitative (score) % frequency, score 3", "setting": "peritoneal adhesions; 10 ml applied on injured sites", "value": 75, "unit": "%"}, {"measurement": "Quantitative (adhesion area), median", "setting": "peritoneal adhesions; area of score 2 or 3 adhesions", "value": 2.4, "unit": "cm^2"}]}
{"compound": "C[C@@H]1C[C@H]2[C@@H]3CCC4=CC(=O)C=C[C@]4(C)[C@@]3(F)[C@@H](O)C[C@]2(C)[C@@]1(O)C(=O)CO", "note": "[Dexamethasone]", "values": [{"measurement": "concentrations with no effect on production of TNF-α", "setting": "[2]", "value": "lower than 10^−9 M"}, {"measurement": "concentrations with no effect on production of IL-6", "setting": "[3]", "value": "lower than 10^−9 M"}]}
{"compound": "CCCC1O[C@@H]2C[C@H]3[C@@H]4CCC5=CC(=O)C=C[C@]5(C)[C@H]4[C@@H](O)C[C@]3(C)[C@]2(C(=O)CO)O1", "note": "(some centres unmarked) [Budesonide]", "values": [{"measurement": "solubility at 24 h", "setting": "[4]", "value": 27, "unit": "µg/mL"}, {"measurement": "solubility in water", "setting": "[5]", "value": "< 100", "unit": "µg/mL"}]}
